From PMC6467542 (Bioorganic & Medicinal Chemistry, 2019)
Converted amounts (≈) assume the structure as drawn. Where two headings read alike, the source gives them in different places.

Key:
[1] = mouse, in vivo
M. tb (strain H37Rv) [2] = assay: MIC90 against replicating M.tb (MABA); assay type: cell-based, Mycobacterium tuberculosis; conditions: Mycobacterium tuberculosis, aerobic (replicating) conditions, 90% inhibition of growth
hERG potassium channel = hERG potassium channel (Homo sapiens, UniProt Q12809); assay: Inhibition of hERG potassium current (patch clamp electrophysiology); conditions: for hERG % inhibition at 3 µM: manual or (less accurate) QPatch assay; for IC50: read-out: hERG IC50, manual patch clamp, 5-concentration dose-response
in vitro [3] = conditions: human, microsomes
in vitro [4] = conditions: mouse, microsomes
M. tb (strain H37Rv) [5] = assay: MIC90 against non-replicating M.tb (LORA); assay type: cell-based, Mycobacterium tuberculosis; conditions: Mycobacterium tuberculosis, H37RV, read-out: MIC90 LORA
Experimental: In these assays, 1 is a potent inhibitor, with MICs of 0.08 and 0.12 µg/mL, respectively. Replacement of the naphthalene C-unit of 1 with various pyridyls produced analogues of considerably lower lipophilicity, with clogP values ranging from 6.89 down to 2.98.

in vivo = conditions: mouse, iv
M.tb = assay: Efficacy in a mouse model of TB (lung CFU reduction); assay type: in vivo
[6] = Clearance by mouse liver microsomes
[7] = Clearance by human liver microsomes
[8] = Cytotoxicity in Vero cells; assay type: cell-based; conditions: green monkey, Vero green monkey-derived epithelial kidney cells
CYP3A4 = CYP3A4 (Homo sapiens, UniProt P08684); assay: Inhibition of CYP 3A4; assay type: in vitro ADME
[9] = Mycobacterium tuberculosis, inhaled or nasal, 288 h; read-out: Log reduction in colony-forming units (CFU), new compound

Chain of hERG potassium channel (Q12809 whole entry): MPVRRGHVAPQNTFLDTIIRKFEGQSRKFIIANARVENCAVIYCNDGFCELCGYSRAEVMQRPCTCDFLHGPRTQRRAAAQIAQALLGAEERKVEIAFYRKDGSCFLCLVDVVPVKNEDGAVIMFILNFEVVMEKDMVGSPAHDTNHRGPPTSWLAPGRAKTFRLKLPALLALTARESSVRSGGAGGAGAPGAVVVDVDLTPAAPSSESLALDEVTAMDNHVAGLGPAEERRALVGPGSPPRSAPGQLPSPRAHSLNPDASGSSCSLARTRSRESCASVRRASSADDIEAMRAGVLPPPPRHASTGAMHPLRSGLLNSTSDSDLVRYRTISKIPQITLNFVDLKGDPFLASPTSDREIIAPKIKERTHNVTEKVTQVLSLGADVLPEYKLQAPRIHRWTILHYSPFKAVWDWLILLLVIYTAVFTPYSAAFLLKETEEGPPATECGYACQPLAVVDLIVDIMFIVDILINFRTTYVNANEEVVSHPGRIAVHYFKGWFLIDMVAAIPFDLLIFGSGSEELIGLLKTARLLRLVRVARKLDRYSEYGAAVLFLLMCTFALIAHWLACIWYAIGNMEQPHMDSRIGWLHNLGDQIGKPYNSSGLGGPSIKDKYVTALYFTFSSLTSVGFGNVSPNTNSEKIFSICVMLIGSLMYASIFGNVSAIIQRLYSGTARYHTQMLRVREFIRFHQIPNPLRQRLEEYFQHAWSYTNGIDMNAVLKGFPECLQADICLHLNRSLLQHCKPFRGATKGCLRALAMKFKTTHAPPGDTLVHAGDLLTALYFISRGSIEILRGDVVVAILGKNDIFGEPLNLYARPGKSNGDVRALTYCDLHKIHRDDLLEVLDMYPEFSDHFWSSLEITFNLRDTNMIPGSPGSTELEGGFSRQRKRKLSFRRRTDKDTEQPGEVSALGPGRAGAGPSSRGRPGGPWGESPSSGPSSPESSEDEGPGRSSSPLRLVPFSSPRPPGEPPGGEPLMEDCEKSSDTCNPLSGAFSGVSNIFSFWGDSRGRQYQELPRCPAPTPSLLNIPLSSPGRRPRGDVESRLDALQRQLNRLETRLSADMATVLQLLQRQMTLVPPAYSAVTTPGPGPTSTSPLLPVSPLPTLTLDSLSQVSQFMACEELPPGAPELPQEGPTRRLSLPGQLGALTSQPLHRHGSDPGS
Chain of CYP3A4 (P08684 whole entry): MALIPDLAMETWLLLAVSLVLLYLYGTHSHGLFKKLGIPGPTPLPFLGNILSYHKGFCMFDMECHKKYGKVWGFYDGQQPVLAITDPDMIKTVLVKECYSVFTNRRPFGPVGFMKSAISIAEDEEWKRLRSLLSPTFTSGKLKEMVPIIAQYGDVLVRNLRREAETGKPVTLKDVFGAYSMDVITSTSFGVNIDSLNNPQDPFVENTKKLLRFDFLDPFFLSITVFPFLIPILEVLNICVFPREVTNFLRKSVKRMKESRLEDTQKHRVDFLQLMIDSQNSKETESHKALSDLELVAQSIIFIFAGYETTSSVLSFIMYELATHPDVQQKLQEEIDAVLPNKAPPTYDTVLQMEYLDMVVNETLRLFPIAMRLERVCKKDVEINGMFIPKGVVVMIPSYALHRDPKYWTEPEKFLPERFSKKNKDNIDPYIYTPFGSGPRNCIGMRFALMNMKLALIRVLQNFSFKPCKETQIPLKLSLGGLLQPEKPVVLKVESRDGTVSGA

SMILES	AUC: exposure, AUCinf [1]	IV Cl: IV clearance [1]	Vz: IV apparent volume of distribution during terminal phase [1]	F: oral bioavailability [1]	MIC90 (M. tb (strain H37Rv) [2])	microsomal CLint (in vitro [3])	microsomal CLint (in vitro [4])	MIC90 (M. tb (strain H37Rv) [5])	clearance (in vivo)	log reduction at 20 mg/kg (M.tb; [9])	IC50 (hERG potassium channel)	also measured
COc1cccc(C(c2cc3cc(Br)ccc3nc2OC)C(O)(CCN(C)C)c2ccc(C)nc2)c1F (centres unmarked) [Compound 22]	250 ng·h/mL	67 mL/min/kg	10 L/kg	8%	0.3 µg/mL (≈ 0.528 µM)	24 µL/min/mg	99 µL/min/mg	0.28 µg/mL (≈ 0.493 µM)	> 50 mL/min/kg	–	–	hERG % inhibition at 3 µM (hERG potassium channel): 17%/3
COc1cccc(C(c2cc3cc(C#N)ccc3nc2OC)C(O)(CCN(C)C)c2cc(C)nc(C)c2)c1F (centres unmarked) [Compound 55]	350 ng·h/mL	130 mL/min/kg	53 L/kg	25%	0.6 µg/mL (≈ 1.14 µM)	12 µL/min/mg	51 µL/min/mg	0.91 µg/mL (≈ 1.72 µM)	> 50 mL/min/kg	–	–	hERG % inhibition at 3 µM (hERG potassium channel): 37%/3
COc1nc2ccc(Br)cc2cc1C(c1cccc2c1OCO2)C(O)(CCN(C)C)c1cccnc1OC (centres unmarked) [Compound 41]	3780 ng·h/mL	27 mL/min/kg	20 L/kg	46%	0.66 µg/mL (≈ 1.14 µM)	36 µL/min/mg	19 µL/min/mg	1.1 µg/mL (≈ 1.89 µM)	–	0.3	–	hERG % inhibition at 3 µM (hERG potassium channel): 26%/3
COc1cccc(C(c2cc3cc(Br)ccc3nc2OC)C(O)(CCN(C)C)c2cc(C)cnc2C)c1OC (centres unmarked) [Compound 33]	1390 ng·h/mL	79 mL/min/kg	77 L/kg	72%	0.07 µg/mL (≈ 0.118 µM)	7 µL/min/mg	17 µL/min/mg	0.11 µg/mL (≈ 0.185 µM)	> 50 mL/min/kg	3.5	1.1 µM	–
COc1cccc(C(c2cc3cc(Br)ccc3nc2OC)C(O)(CCN(C)C)c2cnc(C)cc2C)c1OC (centres unmarked) [Compound 38]	2080 ng·h/mL	28 mL/min/kg	23 L/kg	34%	0.02 µg/mL (≈ 0.0336 µM)	13 µL/min/mg	46 µL/min/mg	0.24 µg/mL (≈ 0.404 µM)	–	0.7	3.9 µM	–
COc1cccc(C(c2cc3cc(C#N)ccc3nc2OC)C(O)(CCN(C)C)c2cc(C)nc(C)c2)c1OC (centres unmarked) [Compound 57]	1480 ng·h/mL	71 mL/min/kg	82 L/kg	54%	0.24 µg/mL (≈ 0.444 µM)	7 µL/min/mg	7 µL/min/mg	0.61 µg/mL (≈ 1.13 µM)	> 50 mL/min/kg	1.9	5.2 µM	–
CCOc1cc(C(O)(CCN(C)C)C(c2cc3cc(Br)ccc3nc2OC)c2ccnc(OC)c2OC)cc(OC(C)C)n1 (centres unmarked) [Compound 61]	–	–	–	–	0.01 µg/mL (≈ 0.0149 µM)	–	–	0.06 µg/mL (≈ 0.0896 µM)	–	–	–	microsomal CLint [6]: 7 µL/min/mg; microsomal CLint [7]: 8 µL/min/mg; F: oral bioavailability (Mouse pharmacokinetics; mice): 50%; AUC: exposure, AUCinf (Mouse pharmacokinetics; mouse): 10900 ng·h/mL; IV Cl: IV clearance (Mouse pharmacokinetics; mouse, IV): 7 mL/min/kg; Vz: IV apparent volume of distribution during terminal phase (Mouse pharmacokinetics; mouse, IV): 44 L/kg; log reduction at 20 mg/kg (M.tb; Mycobacterium tuberculosis, inhaled or nasal, 288 h, read-out: Log reduction in colony-forming units (CFU), new compound): 5
COc1cc(C(O)(CCN(C)C)C(c2cc3cc(Br)ccc3nc2OC)c2ccnc(OC)c2OC)cnc1OC (centres unmarked) [Compound 48]	4280 ng·h/mL	19 mL/min/kg	6.0 L/kg	48%	0.06 µg/mL (≈ 0.0956 µM)	5 µL/min/mg	59 µL/min/mg	0.45 µg/mL (≈ 0.717 µM)	–	0.9	3.6 µM	–
COc1nc2ccc(Br)cc2cc1C(c1cccc(C)c1)C(O)(CCN(C)C)c1cccnc1C (centres unmarked) [Compound 19]	400 ng·h/mL	59 mL/min/kg	33 L/kg	10%	0.15 µg/mL (≈ 0.281 µM)	35 µL/min/mg	71 µL/min/mg	0.25 µg/mL (≈ 0.468 µM)	> 50 mL/min/kg	–	–	hERG % inhibition at 3 µM (hERG potassium channel): 26%/3
CCOc1cc(C(O)(CCN(C)C)C(c2cc(OC)nc(OC)c2)c2cc3cc(Br)ccc3nc2OC)cc(OC(C)C)n1 (centres unmarked) [Compound 62]	33000 ng·h/mL	3 mL/min/kg	20 L/kg	58%	< 0.02 µg/mL	1 µL/min/mg	2.3 µL/min/mg	–	–	4.5	> 10 µM	–
COc1nc2ccc(C#N)cc2cc1C(c1cccc(C)c1)C(O)(CCN(C)C)c1cccnc1OC (centres unmarked) [Compound 40]	1170 ng·h/mL	48 mL/min/kg	6.6 L/kg	33%	0.52 µg/mL (≈ 1.05 µM)	11 µL/min/mg	53 µL/min/mg	0.76 µg/mL (≈ 1.53 µM)	–	0.5	0.3 µM	–
COc1nc2ccc(Br)cc2cc1[C@@H](c1ccccc1)[C@@](O)(CCN(C)C)c1cccc2ccccc12 [Compound 1, Bedaquiline, reference compound]	–	–	–	–	0.08 µg/mL (≈ 0.144 µM)	–	–	0.12 µg/mL (≈ 0.216 µM)	–	–	–	IC50 [8]: 4 to 16 µg/mL (≈ 7.2 to 28.8 µM)
COc1nc2ccc(Br)cc2cc1C(c1cccc(C)c1)C(O)(CCN(C)C)c1cccnc1OC (centres unmarked) [Compound 39]	2510 ng·h/mL	–	–	–	0.13 µg/mL (≈ 0.236 µM)	10 µL/min/mg	20 µL/min/mg	0.14 µg/mL (≈ 0.254 µM)	–	0.6	0.45 µM	–
COc1cccc(C(O)(CCN(C)C)C(c2cc3cc(Br)ccc3nc2OC)c2cccc3c2OCO3)n1 (centres unmarked) [Compound 15]	5600 ng·h/mL	13 mL/min/kg	10 L/kg	45%	0.54 µg/mL (≈ 0.93 µM)	8 µL/min/mg	25 µL/min/mg	0.58 µg/mL (≈ 0.999 µM)	–	0.3	0.24 µM	IC50 (CYP3A4): 7.6 µM
